The data set can be described thus: Measurement of pKa from absorption spectra. The class given is physicochemical. As to conditions: in acetonitrile, 70% perchloric acid (solvent: acetic acid) added dropwise; proton adduct at nitrogen atom of triazine ring. How it is done:
<Method for Measuring pKa>
Compound (1) was dissolved in acetonitrile to give an absorbance of 1 and to this solution, 70% perchloric acid (solvent: acetic acid) was added dropwise, thereby varying the pH. At this time, the absorption spectrum of solution was measured and based on the absorbance at λmax, the proportions of a triazine-free form and a proton adduct were calculated at each pH. From the point at which these values became equal, the pKa value was determined. Here, the triazine-free form indicates Compound (1) itself, and the proton adduct indicates a compound resulting from addition of a proton to the nitrogen atom of triazine ring of Compound (1). […] The absorption spectrum was measured using a spectrophotometer, UV-3600 (trade name), manufactured by Shimadzu Corporation, and the pH was measured using a pH meter, HM60G (trade name), manufactured by To a Denpa Kogyo. Incidentally, the absorbance is a value measured at the maximum absorption wavelength of each compound.
Regarding `COC(=O)c1ccc(-c2nc(-c3ccccc3O)nc(-c3ccc(OC)cc3O)n2)cc1` [Compound (104)], the pKa is -5.

For the compound `COc1ccc(-c2nc(-c3ccc(C(=O)OCC(CCCCC(C)C)CCC(C)C)cc3)nc(-c3ccccc3O)n2)c(O)c1` (stereo not shown) [Compound (114)], the pKa is -5.

The compound `CCCCCCCCC(CCCCCC)COC(=O)c1ccc(-c2nc(-c3ccccc3O)nc(-c3ccc(OC)cc3O)n2)cc1` (stereo not shown) [Compound (115)] displayed a pKa of -5.

The compound `CCC(C)CCCCCC(CCCC(C)CC)COC(=O)c1ccc(-c2nc(-c3ccccc3O)nc(-c3ccc(OC)cc3O)n2)cc1` (stereo not shown) [Compound (116)] gave a pKa of -5.

For `COc1ccc(-c2nc(-c3ccc(C(=O)OCC(CCC(C)CC(C)(C)C)C(C)CC(C)(C)C)cc3)nc(-c3ccccc3O)n2)c(O)c1` (stereo not shown) [Compound (117)], the pKa was -5.

`CCCCCCCCCC(CCCCCCC)COC(=O)c1ccc(-c2nc(-c3ccccc3O)nc(-c3ccc(OC)cc3O)n2)cc1` (stereo not shown) [Compound (118)] returned a pKa of -5.

As to `COc1ccc(-c2nc(-c3ccc(C(=O)OCC(CCC(C)CCCC(C)C)C(C)CCCC(C)C)cc3)nc(-c3ccccc3O)n2)c(O)c1` (stereo not shown) [Compound (119)], the pKa is -5.

(Values after patent US8748520B2, “Polycarbonate resin composition containing triazine compound and molded article using the same” (FUJIFILM Corporation, priority 2009, dated 2014).)
